Assays:
[1] = target: T1, A-DA lipid probe targets in Neuro2a cells (Mus musculus, UniProt P22437); assay: In situ competitive SILAC profiling with A-DA probe in Neuro2a cells; type: cell-based; settings: Neuro2a cells, A-DA 5 μM, drug 25 μM
T1 construct: endogenous in cells; host or cells: Neuro2a

[2] = system: membrane and soluble proteins of HEK293T cells; assay: Gel-based profiling of lipid probe labeling in HEK293T cells; type: cell-based, human; settings: probe 20 μM, 30 min, UV
Method: For gel-based analysis, after sonicating the membrane pellets in cold DPBS, protein concentrations of each fraction were determined using the BCA protein assay (Bio-Rad) and a microplate reader (Tecan, Infinite F500).
Proteomes were diluted to 1.0 mg/mL (total protein concentration) and 50 μL of each proteome was transferred to separate wells in a 96-well plate.
In some instances, within the arachidonoyl subset of probes, fatty acid- and fatty acid amide-based probes (AA-DA and AEA-DA, respectively) were synthesized and their potential were evaluated to bind and covalently modify (under UV-light exposure) proteins in human cells by gel-based profiling. For example, HEK293T cells were treated with probe (AA-DA or AEA-DA; 20 μM, 30 min), irradiated with UV light (10 min, 4° C.), lysed and the cell proteomes fractionated into membrane and soluble components by centrifugation prior to conjugation to a fluorescent reporter tag (Rh—N3) using CuAAC (FIG. 4A). […] In some instances, this was a consequence of rapid sequestration of this probe into membranes through its metabolic incorporation into phospho/neutral-lipids or into lipidated proteins. […] In some instances, the labeling profile of the AEA-DA probe reflected a limited capacity of the cell to metabolize this amidated probe, which undergoes enzyme-mediated hydrolysis prior to incorporation into other lipids or proteins.

[3] = target: T2, A-DA lipid probe targets in Neuro2a cells (Mus musculus, UniProt P45377); assay: In situ competitive SILAC profiling with A-DA probe in Neuro2a cells; type: cell-based; settings: Neuro2A cells, A-DA 5 μM, drug 25 μM
T2 construct: endogenous in cells; host or cells: Neuro2a
T2 sequence (P45377 whole entry): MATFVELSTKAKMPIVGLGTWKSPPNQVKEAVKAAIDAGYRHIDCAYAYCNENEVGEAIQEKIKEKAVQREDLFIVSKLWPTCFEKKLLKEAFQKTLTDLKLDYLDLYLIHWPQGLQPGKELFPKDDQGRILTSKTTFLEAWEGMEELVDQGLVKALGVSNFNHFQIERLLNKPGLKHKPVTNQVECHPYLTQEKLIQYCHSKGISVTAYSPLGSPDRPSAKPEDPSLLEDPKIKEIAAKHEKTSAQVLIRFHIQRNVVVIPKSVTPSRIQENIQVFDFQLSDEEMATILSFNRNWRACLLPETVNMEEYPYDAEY

[4] = system: PGF2α-EA formation in PMA-stimulated A549 cells; assay: Oxidative metabolism of AEA in A549 cells (prostamide formation); type: cell-based, human; settings: MJN228, KML110 5 and 25 μM, others 25 μM, AEA 20 μM
Method: The media from the PMA-stimulated cells was removed and cells were washed with DPBS (2×3 mL) before adding freshly prepared media solutions containing vehicle or compound (2 mL/plate). After incubating for 30 min at 37° C., a solution of BHT-stabilized AEA (60 μM AEA; 60 μM BHT) in the same media was added to the cells (1.0 mL/plate) and incubated for 1 h. The media from the cells was then transferred to glass vials containing MS internal standards [PGE2-EA-d4 (25 pmol)], centrifuged (1,500×g, 5 min) to remove detached cells and then loaded onto pre-equilibrated reversed phase SPE cartridges (Phenomenex, Strata-X 33 μm, 60 mg/3 mL). After washing cartridges with 5% MeOH/H2O (3 mL), prostamides were eluted with MeOH (1.0 mL) and the eluent was concentrated under a stream of N2. Concentrated samples were stored at −80° C. until the day of analysis when they were reconstituted in Mobile Phase A [100 μL, 30% CH3CN in H2O (0.1% AcOH, 5.0 mM NH4OAc)].
Media extracts were analyzed by LC/MS/MS with LC separation performed on a Kinetex reversed phase C18 column (50×4.6 mm, 2.6 μm particle size, 100Å). Mobile phase A was composed of 30% (v/v) CH3CN in H2O and Mobile phase B was composed of 50% (v/v) CH3CN in i-PrOH. Both mobile phases also contained 0.1% AcOH and NH4OAc (5 mM) to facilitate ionization and LC separation. […]
MS analysis of prostamides was performed on an Agilent 6460 Triple Quadrupole LC/MS System with operating conditions as follows: gas temperature (300° C.); gas flow (9 L·min^−1); nebulizer (45 psi); sheath gas temperature (300° C.); sheath gas flow (12 L·min^−1); positive and negative capillary voltage (3.5 kV). Analysis was achieved using multiple reaction monitoring with precursor to product ion transitions, optimized collision energies (CE) as listed below and prostamide quantification was achieved by normalized of analyte peaks relative to a deuterated prostamide internal standard (PGE2-EA-d4) to account for differences in extraction efficiency. […]

[5] = target: A-DA lipid probe targets in A549 cells (Homo sapiens, UniProt P07093); assay: In situ competitive SILAC profiling with A-DA probe in (PMA-stimulated) A549 cells; settings: protein SERPINE2 (P07093); A549 cells; competitor 25 μM
Sequence of A-DA lipid probe targets in A549 cells (Homo sapiens, UniProt P07093) (P07093 20-398): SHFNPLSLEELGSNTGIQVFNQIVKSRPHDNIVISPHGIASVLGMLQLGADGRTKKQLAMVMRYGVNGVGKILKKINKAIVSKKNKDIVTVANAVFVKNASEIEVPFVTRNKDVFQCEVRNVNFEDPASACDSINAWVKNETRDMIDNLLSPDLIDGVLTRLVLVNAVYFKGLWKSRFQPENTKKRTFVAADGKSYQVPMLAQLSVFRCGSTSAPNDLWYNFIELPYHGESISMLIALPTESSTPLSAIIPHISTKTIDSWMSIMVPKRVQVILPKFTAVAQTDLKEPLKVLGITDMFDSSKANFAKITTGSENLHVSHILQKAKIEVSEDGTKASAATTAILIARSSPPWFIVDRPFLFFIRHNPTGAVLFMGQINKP

[6] = target: T3, A-DA lipid probe targets in A549 cells (Homo sapiens, UniProt P35354); assay: as above; settings: PMA-stimulated A549 cells, A-DA 5 μM, drug 25 μM
T3 sequence (P35354 18-604): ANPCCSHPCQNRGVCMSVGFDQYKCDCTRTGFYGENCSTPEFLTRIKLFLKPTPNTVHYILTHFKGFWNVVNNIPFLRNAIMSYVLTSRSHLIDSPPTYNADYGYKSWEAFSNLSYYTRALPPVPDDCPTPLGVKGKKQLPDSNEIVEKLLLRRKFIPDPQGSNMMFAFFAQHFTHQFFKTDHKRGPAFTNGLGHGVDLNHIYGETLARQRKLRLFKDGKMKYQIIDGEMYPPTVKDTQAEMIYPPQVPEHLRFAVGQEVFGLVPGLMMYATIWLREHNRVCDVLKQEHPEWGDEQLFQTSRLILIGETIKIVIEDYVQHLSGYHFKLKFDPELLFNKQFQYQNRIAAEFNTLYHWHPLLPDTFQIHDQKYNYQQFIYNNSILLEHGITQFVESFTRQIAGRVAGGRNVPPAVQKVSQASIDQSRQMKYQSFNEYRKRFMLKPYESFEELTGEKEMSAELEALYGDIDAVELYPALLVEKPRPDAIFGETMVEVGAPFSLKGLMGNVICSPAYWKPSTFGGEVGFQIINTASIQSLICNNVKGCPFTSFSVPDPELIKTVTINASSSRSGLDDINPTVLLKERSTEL

[7] = target: T4, A-DA lipid probe targets in A549 cells (Homo sapiens, UniProt Q9UH99); assay: as above; settings: protein SUN2 (Q9UH99); A549 cells; competitor 25 μM
T4 sequence (Q9UH99 1-717): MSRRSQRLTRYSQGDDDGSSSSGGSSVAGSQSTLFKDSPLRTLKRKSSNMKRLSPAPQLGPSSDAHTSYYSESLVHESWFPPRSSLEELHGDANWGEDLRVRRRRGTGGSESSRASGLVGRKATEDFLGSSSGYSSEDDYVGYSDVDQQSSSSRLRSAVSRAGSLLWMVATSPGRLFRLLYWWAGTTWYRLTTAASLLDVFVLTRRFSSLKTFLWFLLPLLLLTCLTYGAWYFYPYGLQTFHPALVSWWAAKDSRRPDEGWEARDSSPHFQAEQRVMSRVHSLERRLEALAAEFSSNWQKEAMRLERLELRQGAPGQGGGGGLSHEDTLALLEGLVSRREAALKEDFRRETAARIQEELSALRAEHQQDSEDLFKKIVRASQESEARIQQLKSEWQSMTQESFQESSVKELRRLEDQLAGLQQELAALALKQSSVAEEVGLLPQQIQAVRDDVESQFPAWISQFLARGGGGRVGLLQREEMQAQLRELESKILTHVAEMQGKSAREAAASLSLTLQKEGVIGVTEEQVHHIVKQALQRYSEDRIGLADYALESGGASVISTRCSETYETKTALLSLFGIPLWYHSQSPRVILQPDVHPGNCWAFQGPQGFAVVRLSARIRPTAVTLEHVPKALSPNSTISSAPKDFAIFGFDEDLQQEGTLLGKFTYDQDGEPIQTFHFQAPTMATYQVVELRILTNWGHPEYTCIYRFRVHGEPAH

[8] = system: sterol-binding proteins in HeLa cells; assay: Gel-based profiling of sterol-binding proteins in HeLa cells; type: cell-based, human; settings: 1-20 μM probe
Method: HeLa cells were grown at 37° C. under a humidified 5% CO2 atmosphere, in a culture medium consisting of high-glucose DMEM (HyClone) supplemented with 10% fetal bovine serum (FBS; Gemini) and penicillin, streptomycin, and glutamine (Cellgro; PSQ). For SILAC experiments, the culture medium was replaced with SILAC DMEM (Thermo) supplemented instead with 10% dialyzed FBS, PSQ, and 100 μg/ml [^13C6, ^15N4] L-arginine-HCl and [^13C6, ^15N2] L-lysine-HCl (Sigma-Aldrich). Cells were passaged at least six times in isotopically labeled media before being utilized for analysis by LC-MS/MS.
To facilitate delivery to cells, all sterols and steroids, including the sterol probes, were complexed in aqueous solution to mβCD (Sigma-Aldrich) for at least twelve hours before dilution in culture medium for labeling. The desired amount of sterol or steroid was added to a saturated aqueous mβCD (38 mM) solution to generate a concentrated stock, and agitated at room temperature overnight; solutions were filtered prior to use the following day. […]
Frozen cell pellets were thawed on ice and lysed in PBS by sonication. Protein concentrations of cell lysates were determined using the BCA protein assay on a microplate reader. […] After 1 hour, samples were mixed with SDS sample loading buffer and loaded without boiling on a 10% SDS-PAGE gel, separated, and imaged using a Hitachi FMBIO-II flatbed fluorescence scanner.

[9] = system: sterol-binding proteins in HeLa cells; assay: SILAC MS-based profiling of sterol-binding proteins in HeLa cells; type: cell-based, human; settings: probe-enriched proteins
Method: To facilitate delivery to cells, all sterols and steroids, including the sterol probes, were complexed in aqueous solution to mβCD (Sigma-Aldrich) for at least twelve hours before dilution in culture medium for labeling. The desired amount of sterol or steroid was added to a saturated aqueous mβCD (38 mM) solution to generate a concentrated stock, and agitated at room temperature overnight; solutions were filtered prior to use the following day. Aqueous stock solutions of the trans probe were prepared at 2 mM; the cis and epi probes were prepared at 1.2 mM; cholesterol and other sterols for competition were prepared at 4 mM; steroids were prepared at 5 mM. […]

T1 sequence (P22437 27-602): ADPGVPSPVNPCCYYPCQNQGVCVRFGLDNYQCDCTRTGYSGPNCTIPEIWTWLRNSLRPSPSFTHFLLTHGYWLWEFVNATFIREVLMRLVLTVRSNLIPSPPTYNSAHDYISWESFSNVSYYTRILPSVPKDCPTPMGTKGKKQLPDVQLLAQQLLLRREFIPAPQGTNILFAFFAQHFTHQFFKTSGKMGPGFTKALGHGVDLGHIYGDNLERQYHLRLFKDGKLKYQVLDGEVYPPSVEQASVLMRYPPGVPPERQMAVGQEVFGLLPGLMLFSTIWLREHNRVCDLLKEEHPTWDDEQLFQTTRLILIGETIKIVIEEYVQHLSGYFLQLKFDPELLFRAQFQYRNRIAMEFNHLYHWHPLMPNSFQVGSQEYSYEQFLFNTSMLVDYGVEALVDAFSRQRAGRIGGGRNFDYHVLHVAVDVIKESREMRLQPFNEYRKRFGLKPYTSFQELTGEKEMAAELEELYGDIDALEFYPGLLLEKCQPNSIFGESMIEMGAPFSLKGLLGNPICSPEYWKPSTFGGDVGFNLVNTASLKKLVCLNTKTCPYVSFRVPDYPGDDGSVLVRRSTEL

CC(C(=O)O)c1ccc(-c2ccccc2)c(F)c1 (racemic) [(±)-flurbiprofen]
competition of A-DA labeling of PTGS1 [1]: competitively blocked

C#CCCCC1(CC/C=C\C/C=C\C/C=C\CCCC(=O)O)N=N1 [AA-DA, (5Z,8Z,11Z)-14-(3-(pent-4-yn-1-yl)-3H-diazirin-3-yl)tetradeca-5,8,11-trienoic acid]
protein labeling profile (membrane vs soluble) [2]: almost exclusive labeling of membrane proteins

CS(=O)(=O)c1ccc(C2=C(c3ccccc3)C(=O)OC2)cc1 [rofecoxib, reference compound]
A-DA labeling of AKR1B8 [3]: reductions
conversion of exogenous AEA to PGF2α-EA [4]: blocked
SILAC ratio, A-DA competition [5]: 1.1
competition of A-DA labeling of PTGS2 [6]: disrupted
SILAC ratio, A-DA competition [7]: 1.2

C#CCCCCOC(=O)CC[C@@H](C)[C@H]1CCC2C3CC4(N=N4)[C@H]4C[C@@H](O)CC[C@]4(C)C3CC[C@@]21C (stereo partly drawn) [trans-sterol probe, (4R)-hex-5-yn-1-yl 4-((3S,5S,10R,13R,17R)-3-hydroxy-10,13-dimethyl-1,2,3,4,5,7,8,9,10,11,12,13,14,15,16,17-hexadecahydrospiro[cyclopenta[a]phenanthrene-6,3′-diazirin]-17-yl)pentanoate]
overall protein-labeling profile by gel [8]: stronger overall protein-labeling profiles
mean labeling intensity ratio trans/epi ([9]; standard deviation 1.2): 2.1
mean labeling intensity ratio trans/cis ([9]; standard deviation=0.57): 0.9
